Tests used:
[1] = test system: hyperlipidemic bonnet macaques; experiment: MTP inhibitor with or without pioglitazone or lovastatin in western diet fed bonnet macaques; type: in vivo, bonnet macaque monkeys; conditions: for plasma cholesterol: then MTP inhibitor one month ± Pioglitazone or Lovastatin; for Hepatic cholesterol, total and free: biopsies
Procedure: FIG. 14. Bonnet Macaque monkeys fed ad libitum WD diet for 40 days and were administered MTPi, Lovastatin, (Lovas) or Pioglitazone (Pio) everyday for one month. A-D* represent comparisons to the MTPi alone group. E-I* represent comparisons between baseline and post biopsies.
Eleven (11) Male bonnet macaque monkeys were fed western diet for 40 days and treated with MTP inhibitor (BMS 2122122-01) with or without either Pioglitazone or Lovastatin for one month. Plasma samples were obtained at Day 0, 20, 40, 47, 54, 61 and 68 days. Liver biopsies were obtained on Day 40 and Day 68. Biopsies were conducted over two days; 2 animals from each group were biopsied per day.
In order to ascertain if the effects seen were a species-specific effect, we studied the treatment of MTP inhibitors either alone or in conjunction with Pioglitazone or Lovastatin in hyperlipidemic bonnet macaques. These animals were fed ad libitum with a WD for 40 days and then subsequently treated with MTP inhibitors for one month. […] These studies indicate that western diet increases plasma cholesterol and that these increases can be abrogated by treatment with an MTP inhibitor.

[2] = test system: C57Bl/6J mice fed western diet; experiment: MTP inhibitor CP-346086 with or without lovastatin or WY14643 in western diet fed mice: plasma/hepatic lipids, AST/ALT; type: in vivo; conditions: for hepatic cholesterol (total, free and esterified): co-drug given with MTPi, compared to MTPi group
Procedure: FIGS. 4a and 4b. Effect of MTP inhibitor (CP-34086) on plasma lipids and lipoproteins in C57Bl/6J mice fed western diet ad libitum for 8 weeks. MTP inhibitor solubilzed in DMSO was administered orally for one week (15 mg/kg/day) along with either DMSO (MTPi), lovastatin (50 mg/kg/day), or WY14643 (10 mg/kg/day). Control mice were gavaged with DMSO only.
FIGS. 5a and 5b. Liver samples from FIG. 4 were used to measure MTP activity (A) and hepatic lipids (B-E). Stars on MPTi group represent comparison between Control and MTPi groups.
Control group (n=4) received daily oral gavage of DMSO alone. MTPi group received 15 mg/kg/day MTP inhibitor CP-346086 (MTPi) once daily. […] Plasma total and HDL cholesterol were unaffected by MTPi. Combined treatment of MTPi and lovastatin decreased plasma LDL cholesterol. […] Next, we measured changes in plasma hepatic enzymes (FIGS. 4G-H). […] These studies indicate that apart from lowering plasma triglyceride, MTPi enhances plasma AST/ALT and these increases can be avoided by the co-administration of lovastatin.

Structure (SMILES) | plasma cholesterol ([1]; WD 40 days) | plasma AST/ALT levels vs baseline and day 40 ([1]; WD 40 days, then treatment one month) | Hepatic cholesterol, total and free ([1]; co-drugs with MTP inhibitor) | Hepatic triglycerides (biopsies day 40 vs day 68) ([1]; co-drugs with MTP inhibitor) | hepatic cholesterol (total, free and esterified) [2] | plasma AST/ALT ([2]; WD 8 weeks, CP-346086 15 mg/kg/day 1 week ± lovastatin 50 or WY14643 10 mg/kg/day, MTPi vs control, co-drugs vs MTPi) | plasma lipids ([2]; WD 8 weeks, WY14643 10 mg/kg/day given along with MTPi, 1 week)
CCc1ccc(CCOc2ccc(CC3SC(=O)NC3=O)cc2)nc1 (racemic) [pioglitazone, (RS)-5-(4-[2-(5-ethylpyridin-2-yl)ethoxy]benzyl)thiazolidine-2,4-dione] | no further significant effect | did not show elevated | suppressed | no significant difference |  |  | 
CC[C@H](C)C(=O)O[C@H]1C[C@@H](C)C=C2C=C[C@H](C)[C@H](CC[C@@H]3C[C@@H](O)CC(=O)O3)[C@H]21 [lovastatin] | no further significant effect |  | suppressed |  | significantly lower |  | 
Cc1cccc(Nc2cc(Cl)nc(SCC(=O)O)n2)c1C [WY14643] |  |  |  |  | no significant effect | no significant effect | did not affect
